Test results: ChEMBL document CHEMBL4819077, “Design, synthesis, and biological evaluation of diosgenin-indole derivatives as dual-functional agents for the treatment of Alzheimer's disease” (Eur J Med Chem, 2021)
Active and inactive are the calls of the source. The calls are words filed in the database; no cut-off is given here.

Assays:
SH-SY5Y [1] = test: Cytotoxicity against human SH-SY5Y cells assessed as reduction in cell viability measured after 24 hrs by MTT assay; type: cell-based
SH-SY5Y [2] = test: Neuroprotection against 6-OHDA-induced oxidative stress in human SH-SY5Y cells assessed as cell protection at 10 uM preincubated for 2 hr before 6-OHDA challenge and measured after 24 hrs by MTT assay; type: functional; settings: time 26 hrs
SH-SY5Y [3] = test: Neuroprotection against H202-induced oxidative stress in human SH-SY5Y cells assessed as cell protection at 10 uM preincubated for 2 hr before H202 challenge and measured after 24 hrs by MTT assay; type: functional
SH-SY5Y [4] = test: Neuroprotection against Abeta-induced oxidative stress in human SH-SY5Y cells assessed as cell protection at 10 uM incubated for 2 hr before Abeta(1-42) challenge and measured after 24 hrs by MTT assay; type: functional; settings: time 26 hrs
SH-SY5Y [5] = test: Neuroprotection against H202-induced human SH-SY5Y cell damage assessed as decrease in ROS accumulation at 50 uM incubated for 2 hr before H202 challenge and measured after 24 hrs by DCFDA staining based fluorescence microscopy; type: functional; settings: time 26.0 hrs
SH-SY5Y [6] = test: Neuroprotection against H202-induced cytotoxicity in human SH-SY5Y cells assessed as increase in cell viability upto 50 uM incubated for 2 hr before H202 challenge and measured after 24 hrs by MTT assay; type: functional, cell-based; settings: dose microM <=50, time 2.0 hrs
[7] = Acute toxicity in ICR mouse assessed as mortality at 500 mg/kg, po administered as single dose measured after 14 days; type: organism-based; settings: in vivo, 336 h, time 14 day
SH-SY5Y [8] = test: Neuroprotection against H202-induced human SH-SY5Y cell damage assessed as decrease in ROS accumulation at 10 uM incubated for 2 hr before H202 challenge and measured after 24 hrs by DCFDA staining based fluorescence microscopy; type: functional; settings: time 26.0 hrs
Mus musculus [9] = test: Improvement in learning and spatial memory in icv infused amyloid beta (1 to 42)-induced ICR mouse model of Alzheimer's disease assessed as improved target quadrant exploration time at 4 to 20 mg/kg, po administered daily for 7 days starting from 7 days post surgery by Morris water maze test; type: functional, organism-based; settings: dose 4-20 mg/kg, time 7.0 day
[10] = Acute toxicity in ICR mouse assessed as abnormalities in heart at 500 mg/kg, po administered […] 14 days by HE staining based assay; type: organism-based; settings: in vivo, 336 h, time 14 day
Mus musculus [11] = test: Neuroprotection against icv infused amyloid beta (1 to 42)-induced ICR mouse model of Alzheimer's disease assessed as rescue of decrease neuronal cells in hippocampal at to 4 to 20 mg/kg, po administered daily for 7 days by HE staining; type: functional, organism-based; settings: dose 4-20 mg/kg, time 7.0 day
[12] = Acute toxicity in ICR mouse assessed as abnormal behaviors at 500 mg/kg, po administered as single dose measured after 14 days; type: organism-based; settings: in vivo, 336 h, time 14 day
[13] = Acute toxicity in ICR mouse assessed as abnormalities in liver at 500 mg/kg, po administered […] 14 days by HE staining based assay; type: organism-based; settings: in vivo, 336 h, time 14 day
SH-SY5Y [14] = test: Neuroprotection against 6-OHDA-induced cytotoxicity in human SH-SY5Y cells assessed as increase in cell viability upto 50 uM incubated for 2 hr before 6-OHDA challenge and measured after 24 hrs by MTT assay; type: functional, cell-based; settings: dose microM <=50, time 2.0 hrs
Mus musculus [15] = test: Neuroprotection against icv infused amyloid beta (1 to 42)-induced ICR mouse model of Alzheimer's disease assessed as rescue of pyknotic nucleus in hippocampal at to 4 to 20 mg/kg, po administered daily for 7 days by HE staining; type: functional, organism-based; settings: dose 4-20 mg/kg, time 7.0 day
SH-SY5Y [16] = test: Neuroprotection against Abeta-induced cytotoxicity in human SH-SY5Y cells assessed as increase in cell viability upto 50 uM incubated for 2 hr before Abeta(1-42) challenge and measured after 24 hrs by MTT assay; type: functional, cell-based; settings: dose microM <=50, time 2.0 hrs
[17] = Acute toxicity in ICR mouse assessed as abnormalities in lung at 500 mg/kg, po administered […] 14 days by HE staining based assay; type: organism-based; settings: in vivo, 336 h, time 14 day
[18] = Acute toxicity in ICR mouse assessed as body weight loss at 500 mg/kg, po administered as single dose measured after 14 days; type: organism-based; settings: in vivo, 336 h, time 14 day
[19] = Acute toxicity in ICR mouse assessed as abnormalities in spleen at 500 mg/kg, po administered […] 14 days by HE staining based assay; type: organism-based; settings: in vivo, 336 h, time 14 day
SH-SY5Y [20] = test: Neuroprotection against 6-OHDA-induced cytotoxicity in human SH-SY5Y cells assessed as increase in cell viability at 100 uM incubated for 2 hr before 6-OHDA challenge and measured after 24 hrs by MTT assay; type: functional, cell-based; settings: time 26.0 hrs
SH-SY5Y [21] = test: Neuroprotection against Abeta-induced cytotoxicity in human SH-SY5Y cells assessed as increase in cell viability at 100 uM incubated for 2 hr before Abeta(1-42) challenge and measured after 24 hrs by MTT assay; type: functional, cell-based
[22] = Acute toxicity in ICR mouse assessed as abnormalities in kidney at 500 mg/kg, po administered […] 14 days by HE staining based assay; type: organism-based; settings: in vivo, 336 h, time 14 day
SH-SY5Y [23] = test: Neuroprotection against H202-induced cytotoxicity in human SH-SY5Y cells assessed as increase in cell viability at 100 uM incubated for 2 hr before H202 challenge and measured after 24 hrs by MTT assay; type: functional, cell-based; settings: time 26.0 hrs
Mus musculus [24] = test: Neuroprotection against icv infused amyloid beta (1 to 42)-induced ICR mouse model of Alzheimer's disease assessed as rescue of pyknotic nucleus in hippocampal at to 2 mg/kg, po administered daily for 7 days by HE staining; type: functional, organism-based; settings: time 7.0 day
Mus musculus [25] = test: Improvement in learning and spatial memory in icv infused amyloid beta (1 to 42)-induced ICR mouse model of Alzheimer's disease assessed as improved target quadrant exploration time at to 2 mg/kg, po administered daily for 7 days starting from 7 days post surgery by Morris water maze test; type: functional, organism-based; settings: time 7.0 day
Mus musculus [26] = test: Neuroprotection against icv infused amyloid beta (1 to 42)-induced ICR mouse model of Alzheimer's disease assessed as rescue of decrease neuronal cells in hippocampal at to 2 mg/kg, po administered daily for 7 days by HE staining; type: functional, organism-based; settings: time 7.0 day

Structure (SMILES) | Activity (SH-SY5Y [1]) | Activity (SH-SY5Y [2]) | Activity (SH-SY5Y [3]) | Activity (SH-SY5Y [4]) | further results
C[C@@H]1CC[C@@]2(OC1)O[C@H]1C[C@H]3[C@@H]4CCc5cc(OC(=O)Cc6c[nH]c7ccc(Br)cc67)ccc5[C@H]4CC[C@]3(C)[C@H]1[C@@H]2C | Non-Toxic | 4.2% | 15.8% | – | –
C[C@@H]1CC[C@@]2(OC1)O[C@H]1C[C@H]3[C@@H]4CCc5cc(OC(=O)Cc6c[nH]c7cc(Cl)ccc67)ccc5[C@H]4CC[C@]3(C)[C@H]1[C@@H]2C | Non-Toxic | 10.9% | 13.4% | – | –
Cc1ccc2[nH]cc(CC(=O)Oc3ccc4c(c3)CC[C@@H]3[C@@H]4CC[C@]4(C)[C@@H]5[C@H](C[C@@H]34)O[C@]3(CC[C@@H](C)CO3)[C@H]5C)c2c1 | Non-Toxic | 18.8% | 14.6% | – | –
COc1ccc2c(CC(=O)Oc3ccc4c(c3)CC[C@@H]3[C@@H]4CC[C@]4(C)[C@@H]5[C@H](C[C@@H]34)O[C@]3(CC[C@@H](C)CO3)[C@H]5C)c[nH]c2c1 | Toxic | – | – | – | –
C[C@@H]1CC[C@@]2(OC1)O[C@H]1C[C@H]3[C@@H]4CCc5cc(OC(=O)NCCc6c[nH]c7ccc(Br)cc67)ccc5[C@H]4CC[C@]3(C)[C@H]1[C@@H]2C | Non-Toxic | 27.9% | 29.6% | – | –
C[C@@H]1CC[C@@]2(OC1)O[C@H]1C[C@H]3[C@@H]4CCc5cc(OC(=O)Cc6c[nH]c7ccccc67)ccc5[C@H]4CC[C@]3(C)[C@H]1[C@@H]2C | Non-Toxic | 61.1% | 18.4% | 20.6% | –
C[C@@H]1CC[C@@]2(OC1)O[C@H]1C[C@H]3[C@@H]4CCc5cc(OC(=O)Cc6c[nH]c7ccc(F)cc67)ccc5[C@H]4CC[C@]3(C)[C@H]1[C@@H]2C | Non-Toxic | 20.2% | 13.3% | – | –
COc1ccc2[nH]cc(CC(C)NC(=O)Oc3ccc4c(c3)CC[C@@H]3[C@@H]4CC[C@]4(C)[C@@H]5[C@H](C[C@@H]34)O[C@]3(CC[C@@H](C)CO3)[C@H]5C)c2c1 (stereo not given in full) | Non-Toxic | 25.8% | 43.6% | 37.2% | –
C[C@@H]1CC[C@@]2(OC1)O[C@H]1C[C@H]3[C@@H]4CCc5cc(OC(=O)NCCc6c[nH]c7ccccc67)ccc5[C@H]4CC[C@]3(C)[C@H]1[C@@H]2C | Non-Toxic | 40.6% | 21.5% | 42.7% | –
C[C@@H]1CC[C@@]2(OC1)O[C@H]1C[C@H]3[C@@H]4CCc5cc(OC(=O)NCCc6c[nH]c7ccc(Cl)cc67)ccc5[C@H]4CC[C@]3(C)[C@H]1[C@@H]2C | Non-Toxic | 15.8% | 38.6% | – | –
COc1ccc2[nH]cc(CC(=O)Oc3ccc4c(c3)CC[C@@H]3[C@@H]4CC[C@]4(C)[C@@H]5[C@H](C[C@@H]34)O[C@]3(CC[C@@H](C)CO3)[C@H]5C)c2c1 | Non-Toxic | 57.4% | 26.9% | 30.4% | –
COc1ccc2[nH]c(C)c(CC(=O)Oc3ccc4c(c3)CC[C@@H]3[C@@H]4CC[C@]4(C)[C@@H]5[C@H](C[C@@H]34)O[C@]3(CC[C@@H](C)CO3)[C@H]5C)c2c1 | Non-Toxic | 42.3% | 37.7% | 26.9% | –
COc1ccc2c(CCNC(=O)Oc3ccc4c(c3)CC[C@@H]3[C@@H]4CC[C@]4(C)[C@@H]5[C@H](C[C@@H]34)O[C@]3(CC[C@@H](C)CO3)[C@H]5C)c[nH]c2c1 | Non-Toxic | 47.7% | 50% | 43.7% | –
COc1ccc2[nH]cc(CCNC(=O)Oc3ccc4c(c3)CC[C@@H]3[C@@H]4CC[C@]4(C)[C@@H]5[C@H](C[C@@H]34)O[C@]3(CC[C@@H](C)CO3)[C@H]5C)c2c1 | Non-Toxic | 38.4% | 52.9% | 54.4% | Activity (SH-SY5Y [5]): inactive; Activity (SH-SY5Y [6]): Active; Activity [7]: Non-Toxic; Activity (SH-SY5Y [8]): Active; Activity (Mus musculus [9]): Active; Activity [10]: Non-Toxic; Activity (Mus musculus [11]): Active; Activity [12]: Non-Toxic; Activity [13]: Non-Toxic; Activity (SH-SY5Y [14]): Active; Activity (Mus musculus [15]): Active; Activity (SH-SY5Y [16]): Active; Activity [17]: Non-Toxic; Activity [18]: Non-Toxic; Activity [19]: Non-Toxic; Activity (SH-SY5Y [20]): inactive; Activity (SH-SY5Y [21]): inactive; Activity [22]: Non-Toxic; Activity (SH-SY5Y [23]): inactive
Cc1ccc2[nH]cc(CCNC(=O)Oc3ccc4c(c3)CC[C@@H]3[C@@H]4CC[C@]4(C)[C@@H]5[C@H](C[C@@H]34)O[C@]3(CC[C@@H](C)CO3)[C@H]5C)c2c1 | Non-Toxic | 27.7% | 49.1% | 34.2% | –
C[C@@H]1CC[C@@]2(OC1)O[C@H]1C[C@H]3[C@@H]4CCc5cc(OC(=O)NCCc6c[nH]c7cc(F)ccc67)ccc5[C@H]4CC[C@]3(C)[C@H]1[C@@H]2C | Non-Toxic | 40.2% | 35.8% | 42.5% | –
Cc1[nH]c2ccccc2c1CCNC(=O)Oc1ccc2c(c1)CC[C@@H]1[C@@H]2CC[C@]2(C)[C@@H]3[C@H](C[C@@H]12)O[C@]1(CC[C@@H](C)CO1)[C@H]3C | Non-Toxic | 34.4% | 31.1% | – | –
Cc1[nH]c2ccccc2c1CC(=O)Oc1ccc2c(c1)CC[C@@H]1[C@@H]2CC[C@]2(C)[C@@H]3[C@H](C[C@@H]12)O[C@]1(CC[C@@H](C)CO1)[C@H]3C | Non-Toxic | 30.5% | 22.7% | – | –
C[C@@H]1CC[C@@]2(OC1)O[C@H]1C[C@H]3[C@@H]4CCc5cc(OC(=O)NCCc6c[nH]c7ccc(F)cc67)ccc5[C@H]4CC[C@]3(C)[C@H]1[C@@H]2C | Non-Toxic | 47.7% | 43.4% | 44.8% | –
C[C@@H]1CC[C@@]2(OC1)O[C@H]1C[C@H]3[C@@H]4CC=C5C[C@@H](O)CC[C@]5(C)[C@H]4CC[C@]3(C)[C@H]1[C@@H]2C [DISOGENIN] | – | 14.2% | 9.2% | 7.4% | –
COc1cc2c(cc1OC)C(=O)C(CC1CCN(Cc3ccccc3)CC1)C2 (stereo not given) | – | – | – | – | Activity (Mus musculus [24]): Active; Activity (Mus musculus [25]): Active; Activity (Mus musculus [26]): Active
